This passage reports absorption maximum results from the Deep4Chem optical property database.

This data set can be described thus: solvent given as SMILES.

Each structure is given as a SMILES string.

For the molecule `Cc1cc(O)c(C(=O)/C=C/c2ccc([N+](=O)[O-])cc2)c(=O)o1`, the absorption maximum by setting is: (in CC#N) 358 nm; (in ClCCl) 361 nm.

In turn, `C(#Cc1ccc(-n2c3ccccc3c3ccccc32)cc1)c1ccccc1` gave an absorption maximum (in CC#N) of 324 nm; an absorption maximum (in CCCCC) of 323 nm; an absorption maximum (in CO) of 322 nm; an absorption maximum (in Cc1ccccc1) of 329 nm; an absorption maximum (in ClC(Cl)Cl) of 326 nm; an absorption maximum (in ClCCl) of 326 nm.

Molecule `C(=C\c1ccc(/C=C/c2cccs2)s1)/c1cccs1` registered an absorption maximum (in CC#N) of 423 nm.

In turn, `C[Si]1(C)O[Si](C)(C)c2cc3nc4ccccc4c(-c4ccccc4)c3cc2[Si](C)(C)O1` had an absorption maximum (in ClCCl) of 368 nm.

As for `C1=C(c2ccccc2)C=C(c2ccccc2)/C1=C/c1ccc2ccc3cccc4ccc1c2c34`, the absorption maximum (in C1CCOC1) is 422 nm.

Regarding `CC1(C)C(/C=C/c2cc3ccc(O)cc3oc2=O)=[N+](CCCS(=O)(=O)[O-])c2ccccc21`, the absorption maximum reads like this: (in CCO) 623 nm; (in CS(C)=O) 630 nm; (in O) 555 nm.

With `COC(=O)c1ccc(C#Cc2ccccc2)cc1`, the absorption maximum runs as follows: (in C1CCCCC1) 316.6 nm; (in CC#N) 311.6 nm; (in CC(C)O) 313.8 nm; (in CCCCCC) 314.8 nm; (in CCCCCCCCCCCCCCCC) 317.3 nm; (in CCCCCCCCCCCCCCCCCl) 317.2 nm. This molecule also yielded an absorption maximum (in CO) of 311.8 nm.

For `COc1ccc(-c2c3ccccc3c3n2[B-](F)(F)[N+]2=Cc4c5ccccc5c(-c5ccc(OC)cc5)n4[B-](F)(F)[N+]2=C3)cc1`, the absorption maximum amounted to 561 nm (in CC#N); 573 nm (in CCCCCC); 569 nm (in CN(C)C=O); 579 nm (in Cc1ccccc1); 571 nm (in ClCCl).

For `N#CC(C#N)=Cc1ccc(-c2ccc(N(c3ccccc3)c3ccccc3)cc2)o1`, the absorption maximum (in ClC(Cl)Cl) is 509 nm.

Consider `COC(=O)/C=C/c1sc(-c2ccc(N(C)C)cc2)cc1N`, for which, for the setting “in CC#N”, the absorption maximum came out at 419 nm.

Take `CCNc1ccc2c(c1)C(C)(C)C(=O)C=C2`: where the note is “in O”, the absorption maximum is on record as 402 nm.

On to `N#CC(C#N)=C(c1cccc(N(c2ccccc2)c2ccccc2)c1)c1cccc(N(c2ccccc2)c2ccccc2)c1`, for which the absorption maximum (in C1CCCCC1) amounted to 367.69 nm; the absorption maximum (in CC(C)=O) is given as 371.43 nm; the absorption maximum (in CN(C)C=O) was determined as 374.84 nm; the absorption maximum (in Cc1ccccc1) is 374.84 nm; the absorption maximum (in ClC(Cl)Cl) is recorded as 382.14 nm.

Take `CCCCCOc1cc2oc(=O)c3c4ccc(N(c5ccccc5)c5ccccc5)cc4c4ccc5cccc6c(c1)c2c3c4c56`: the absorption maximum (in C1CCOC1) amounted to 476 nm.

With `CCNc1cc2c(cc1C)C(c1ccccc1C(=O)O)=C1CCCC(/C=C/C3=[N+](C)c4ccc5ccccc5c4C3(C)C)=C1O2`, the absorption maximum stood at 716 nm (in CC#N), 708 nm (in CCO), 710 nm (in CO) and 722 nm (in ClC(Cl)Cl).

`Cc1ccc(N2C(c3ccccc3N)=NC(c3ccccc3)C2c2ccccc2)cc1` (stereo unspecified) yielded an absorption maximum (in Cc1ccccc1) of 282 nm.

For the molecule `CCCC(=O)c1c2c(c(C(=O)CCC)c3c1OC(CC(=O)OC)(C(=O)OC)O3)OCO2`, the absorption maximum is, setting by setting: (in CC#N) 423 nm; (in CCCCCC) 413 nm; (in CCO) 428 nm; (in CO) 428 nm; (in ClCCl) 425 nm.

`CCCCN1C(=O)c2cc(Br)c3c4c(Br)cc5c6c(cc(Br)c(c7c(Br)cc(c2c37)C1=O)c64)C(=O)N(CCCC)C5=O` had an absorption maximum (in ClC(Cl)Cl) of 532 nm.

Consider `COc1cc2oc(=O)c3c4ccc(C=O)cc4c4ccc5cccc6c(c1)c2c3c4c56`, for which the absorption maximum (in C1CCOC1) came out at 425 nm.

`O=C1Nc2ccccc2/C1=C/C(=O)c1ccc(Cl)cc1` showed an absorption maximum (in C1CCCCC1) of 335 nm; an absorption maximum (in C1COCCO1) of 335 nm; an absorption maximum (in CC#N) of 332 nm; an absorption maximum (in CC(C)(C)O) of 339 nm; an absorption maximum (in CC(C)O) of 339 nm; an absorption maximum (in CCCCCC) of 334 nm. In addition, the absorption maximum is recorded as 339 nm (in CCCCO); 335 nm (in CCOC(C)=O); 337 nm (in CN(C)C=O); 340 nm (in CO); 338 nm (in ClCCl); 341 nm (in O).

Regarding `CCC1=C(C)C(=O)n2c1cc1c(C)c(CC)c(C)n1c2=O`, the absorption maximum reads like this: (in CC#N) 423 nm; (in CC(C)=O) 422 nm; (in CO) 428 nm; (in CS(C)=O) 428 nm; (in ClC(Cl)Cl) 432 nm; (in c1ccccc1) 428 nm.

For the molecule `O=c1oc2ccccc2cc1/C=C/c1ccc([N+](=O)[O-])cc1`, the absorption maximum (in CC#N) turned out to be 371 nm.

Molecule `COC(=O)/C=C/c1sc(-c2ccc(N(C)C)s2)c(-c2cn(C)c3ccccc23)c1O` returned an absorption maximum (in CC#N) of 478 nm.

In the case of `CC(=O)c1ccc(-c2cccc3ncc(-c4ccccc4)n23)cc1`, the absorption maximum (in ClCCl) was determined as 358 nm.

For `O=C1[C@@H]2[C@H](C(=O)N1c1ccc3cc4ccccc4cc3c1)[C@@H]1C=C[C@H]2C1`, under “in ClC(Cl)Cl”, the absorption maximum worked out at 380 nm.

For the setting “in ClCCl”, `CCCCn1c2ccc(C#N)cc2c2cc(C#N)ccc21` had an absorption maximum of 349 nm.

`O=Cc1nc2ccc(C#Cc3ccc(N(c4ccc(C#Cc5ccc6nc(C=O)sc6c5)cc4)c4ccc(C#Cc5ccc6nc(C=O)sc6c5)cc4)cc3)cc2s1` gave an absorption maximum (in Cc1ccccc1) of 414 nm.

`CC1(C)c2ccccc2-c2cc3c(cc21)N(c1ccc(-c2nc(-c4ccc(N5c6ccccc6C(c6ccccc6)(c6ccccc6)c6cc7c(cc65)C(C)(C)c5ccccc5-7)cc4)nc(-c4ccc(N5c6ccccc6C(c6ccccc6)(c6ccccc6)c6cc7c(cc65)C(C)(C)c5ccccc5-7)cc4)n2)cc1)c1ccccc1C3(c1ccccc1)c1ccccc1` registered an absorption maximum (in Cc1ccccc1) of 321 nm.

As for `Cc1cc(=O)oc2cc(-c3cn(Cc4ccccc4)nn3)ccc12`, the absorption maximum (in CCO) turned out to be 329 nm.

For the molecule `COCCOCCOCCOCC(COCCOCCOCCOC)Oc1cc(/C=C/c2ccc(C=C3C(=O)c4ccccc4C3=O)cc2)c(OC(COCCOCCOCCOC)COCCOCCOCCOC)cc1/C=C/c1ccc(C=C2C(=O)c3ccccc3C2=O)cc1`, for the setting “in ClCCl”, the absorption maximum came to 489 nm.

`COc1ccc2c(c1)N(c1ccc(C)cc1)c1cc3c(cc1=N2)Oc1c(cc(C(C)(C)C)cc1C(C)(C)C)N=3`: the absorption maximum worked out at 540 nm (in CC#N), 562 nm (in CCCCCC) and 555 nm (in CO).

As for `CC(C)(C)c1ccc2oc3nc4oc5ccc(-n6c7ccc(C(C)(C)C)cc7c7cc(C(C)(C)C)ccc76)cc5c4cc3c2c1`, where the note is “in ClC(Cl)Cl”, the absorption maximum was 346 nm.

On to `CN(C)c1ccc2c(-c3cc(C(=O)[O-])ccc3C(=O)[O-])c3ccc(=[N+](C)C)cc-3oc2c1`, for which the absorption maximum (in CCO) came out at 538 nm and the absorption maximum (in O) is 549 nm.

Turning to `O=c1c2ccccc2n(-c2ccc(-c3ccc(N(c4ccccc4)c4ccccc4)cc3)cc2)c2ccccc12`, the absorption maximum (in ClCCl) stood at 394 nm.

Consider `Clc1cnc2nn3ccccc3c2n1`, for which the absorption maximum (in C1CCOC1) came to 404 nm.

In the case of `CCCCCCN1C(=O)c2cccc3c(-c4ccc(-c5cc(-c6ccccc6)nn5-c5ccccc5)s4)ccc(c23)C1=O`, for the setting “in ClCCl”, the absorption maximum is given as 388 nm.

In turn, `c1ccc(-c2cc(-c3ccccc3)[o+]c(-c3ccccc3)c2)cc1` returned an absorption maximum (in CC#N) of 403 nm and an absorption maximum (in ClCCCl) of 420 nm.

`Cc1ccc2nc(-c3cc(-c4nc5ccc(C)cc5[nH]4)cc(-c4nc5ccc(C)cc5[nH]4)c3)[nH]c2c1` gave an absorption maximum (in CS(C)=O) of 322.8 nm.

`Cn1cc(-c2nc3ccccc3nc2/C=C/N2CCCC2)c2ccccc21` showed an absorption maximum (in CC#N) of 440 nm.

Consider `CCOC(=O)c1c(-c2c(Cl)c3cc(C)ccc3oc2=O)nn(-c2cccc(Cl)c2)c1C(=O)OCC`, for which, under “in ClCCl”, the absorption maximum came out at 331 nm.

`CCCCc1cc2c3c(c1)-c1ccccc1B(c1c(C)cc(C)cc1C)N3B(c1c(C)cc(C)cc1C)c1ccccc1-2` returned an absorption maximum (in ClCCl) of 366 nm.

With `COc1cc(OC)cc(C2=C3C(C)=C(I)C(/C=C/c4c[nH]c5ccccc45)=[N+]3[B-](F)(F)n3c(/C=C/c4c[nH]c5ccccc45)c(I)c(C)c32)c1`, the absorption maximum came out at 715 nm (in C1CCOC1), 727 nm (in CS(C)=O) and 702 nm (in ClCCl).

Consider `O=Cc1ccc(-c2ccc(C3=CCC(c4ccccc4)CC3)s2)s1` (stereo unspecified), for which the absorption maximum runs as follows: (in C1CCOC1) 385 nm; (in CC#N) 385 nm; (in CCCCCC) 380 nm; (in CCO) 389 nm; (in OCCOCCO) 389 nm; (in c1ccncc1) 393 nm.

For the molecule `COC(=O)c1nc(-c2cccc3ccccc23)oc1C`, the absorption maximum is 318 nm (in C1CCCCC1), 308 nm (in CC#N), 309 nm (in CCO) and 317 nm (in CCOC(C)=O).

Molecule `CCCCCCN(CCCCCC)c1ccc(C#Cc2ccc(/C=C/c3ccc(-c4ccc(/C=C/c5ccc(C#Cc6ccc(N(CCCCCC)CCCCCC)cc6)cc5)cc4)cc3)cc2)cc1` had an absorption maximum (in Cc1ccccc1) of 400 nm.

The molecule `Cc1cc2ccc(-c3cccc4cccc(-c5ccc6cc(C)c(=O)oc6c5)c34)cc2oc1=O` displayed an absorption maximum (in C1CCCCC1) of 324 nm; an absorption maximum (in C1COCCO1) of 324 nm; an absorption maximum (in CC#N) of 326 nm; an absorption maximum (in CCO) of 328 nm; an absorption maximum (in CCOC(C)=O) of 325 nm; an absorption maximum (in CN(C)C=O) of 326 nm. The absorption maximum is, setting by setting: (in CO) 328 nm; (in c1ccccc1) 324 nm.
